We go through 10 compounds from the Kinase Knowledgebase extract (Sharma et al. 2016).

The assay deals with EGFR (human) (UniProt P00533). Conditions: mcf-7.
Sequence of EGFR (human) (P00533 whole entry, looked up): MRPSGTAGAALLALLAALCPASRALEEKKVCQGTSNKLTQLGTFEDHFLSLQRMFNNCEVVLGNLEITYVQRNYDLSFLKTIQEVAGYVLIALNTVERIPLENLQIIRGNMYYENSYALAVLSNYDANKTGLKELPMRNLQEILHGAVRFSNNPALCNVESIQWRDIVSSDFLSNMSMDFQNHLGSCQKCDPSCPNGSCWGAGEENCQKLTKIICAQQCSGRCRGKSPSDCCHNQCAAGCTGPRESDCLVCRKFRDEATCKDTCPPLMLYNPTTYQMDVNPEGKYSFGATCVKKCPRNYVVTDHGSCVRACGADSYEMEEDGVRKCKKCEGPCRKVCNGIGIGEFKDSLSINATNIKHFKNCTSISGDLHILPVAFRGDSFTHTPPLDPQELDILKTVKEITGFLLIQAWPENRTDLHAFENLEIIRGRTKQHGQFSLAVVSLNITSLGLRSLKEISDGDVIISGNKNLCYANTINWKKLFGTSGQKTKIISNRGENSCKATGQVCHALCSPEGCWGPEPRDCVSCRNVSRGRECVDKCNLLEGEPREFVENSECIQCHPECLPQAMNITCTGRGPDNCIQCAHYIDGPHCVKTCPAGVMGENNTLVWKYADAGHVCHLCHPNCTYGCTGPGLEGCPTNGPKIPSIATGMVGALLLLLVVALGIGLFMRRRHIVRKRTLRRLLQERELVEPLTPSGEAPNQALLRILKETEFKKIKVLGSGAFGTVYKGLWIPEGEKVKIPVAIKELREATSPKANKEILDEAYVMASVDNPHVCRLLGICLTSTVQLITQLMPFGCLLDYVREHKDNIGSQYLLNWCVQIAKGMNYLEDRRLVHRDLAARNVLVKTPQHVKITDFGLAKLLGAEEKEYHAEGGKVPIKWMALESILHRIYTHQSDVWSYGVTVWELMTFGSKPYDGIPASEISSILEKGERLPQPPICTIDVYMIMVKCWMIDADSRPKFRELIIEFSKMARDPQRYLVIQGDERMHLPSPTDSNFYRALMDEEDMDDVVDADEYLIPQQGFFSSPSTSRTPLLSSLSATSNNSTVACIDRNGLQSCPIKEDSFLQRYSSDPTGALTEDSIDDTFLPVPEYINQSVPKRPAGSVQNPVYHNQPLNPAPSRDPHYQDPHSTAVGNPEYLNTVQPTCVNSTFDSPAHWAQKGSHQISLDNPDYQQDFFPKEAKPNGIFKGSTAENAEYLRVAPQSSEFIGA
Usually IC50 stands for the midpoint of a concentration-inhibition curve. A lower IC50 goes with greater potency in that assay. Turning to `CCOc1ccc2nc(C)cc(Nc3ccc(S(=O)(=O)Nc4ncccn4)cc3)c2c1`, the IC50 was 3.96 nM. Take `COc1cc2nc(Cl)nc(Nc3ccc(S(=O)(=O)Nc4cc(C)on4)cc3)c2cc1OC`: the IC50 is 1.98 nM. For the compound `CCOc1ccc2nc(C)cc(N3CCN(C(=O)c4ccco4)CC3)c2c1`, the half-maximal inhibitory concentration (IC50) turned out to be 4.31 nM.

As for `CCOc1ccc2nc(C)cc(Nc3cccc(O)c3)c2c1`, the IC50 was determined as 2.84 nM. `CCOc1ccc2nc(C)cc(Nc3ccc(S(=O)(=O)NC(=N)N)cc3)c2c1` showed a half-maximal inhibitory concentration (IC50) of 19.2 nM.

In the case of `CCOc1ccc2nc(C)cc(Nc3ccc(Cl)cc3Cl)c2c1`, the IC50 worked out at 4.38 nM.

In turn, `CCOc1ccc2nc(C)cc(Nc3ccc(S(=O)(=O)Nc4cc(C)on4)cc3)c2c1` displayed an IC50 of 13.8 nM. `CCOc1ccc2nc(C)cc(Nc3cc(OC)c(OC)cc3C(=O)OC)c2c1` registered an IC50 of 1.67 nM. As for `COc1cc2nc(Cl)nc(N3CCN(S(=O)(=O)c4ccc(C)cc4)CC3)c2cc1OC`, the figure is 1.08 nM; as for `COc1cc2nc(Cl)nc(Nc3ccc(S(=O)(=O)Nc4nccs4)cc3)c2cc1OC`, 0.13 nM.
